Test system: 485176-168-R4-J1-PDC complex spheroid growth
Test: Anticancer human tumor 485176-168-R4-J1-PDC patient-derived pancreatic adenocarcinoma cell line growth inhibition [RAS]
Conditions: for IC50: curve of first compound; for viability, T/C: stronger effect = lower value
How it was run: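 Multi-cell-type spheroids: tumor cells plus HUVEC endothelial cells and mesenchymal stem cells. RAS-pathway inhibitors were combined with targeted agents, each dosed in half-log steps down from clinical Cmax, or from 10 microM when Cmax was unknown.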

[1] = second compound 0.00316 µM, first compound 0.0316 µM
[2] = second compound 0.00316 µM, first compound 0.1 µM
[3] = second compound 0.00316 µM, first compound 0.316 µM
[4] = second compound 0.00316 µM, first compound 1 µM
[5] = second compound 0.00316 µM, first compound 3.16 µM
[6] = second compound 0.00316 µM, first compound 10 µM
[7] = second compound 0.01 µM, first compound 0.0316 µM
[8] = second compound 0.01 µM, first compound 0.1 µM
[9] = second compound 0.01 µM, first compound 0.316 µM
[10] = second compound 0.01 µM, first compound 1 µM
[11] = second compound 0.01 µM, first compound 3.16 µM
[12] = second compound 0.01 µM, first compound 10 µM
[13] = second compound 0.0316 µM, first compound 0.0316 µM
[14] = second compound 0.0316 µM, first compound 0.1 µM
[15] = second compound 0.0316 µM, first compound 0.316 µM
[16] = second compound 0.0316 µM, first compound 1 µM
[17] = second compound 0.0316 µM, first compound 3.16 µM
[18] = second compound 0.0316 µM, first compound 10 µM
[19] = second compound 0.1 µM, first compound 0.0316 µM
[20] = second compound 0.1 µM, first compound 0.1 µM
[21] = second compound 0.1 µM, first compound 0.316 µM
[22] = second compound 0.1 µM, first compound 1 µM
[23] = second compound 0.1 µM, first compound 3.16 µM
[24] = second compound 0.1 µM, first compound 10 µM
[25] = second compound 0.316 µM, first compound 0.0316 µM
[26] = second compound 0.316 µM, first compound 0.1 µM
[27] = second compound 0.316 µM, first compound 0.316 µM
[28] = second compound 0.316 µM, first compound 1 µM
[29] = second compound 0.316 µM, first compound 3.16 µM
[30] = second compound 0.316 µM, first compound 10 µM
[31] = second compound 1 µM, first compound 0.0316 µM
[32] = second compound 1 µM, first compound 0.1 µM
[33] = second compound 1 µM, first compound 0.316 µM
[34] = second compound 1 µM, first compound 1 µM
[35] = second compound 1 µM, first compound 3.16 µM
[36] = second compound 1 µM, first compound 10 µM
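Also: spheroids exposed to compounds for seven days before readout.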
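For viability, T/C in this document: luminescence viability expressed relative to DMSO vehicle wells set as 100%.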

CC(C)NCC(C(=O)N1CCN(c2ncnc3c2C(C)CC3O)CC1)c1ccc(Cl)cc1 (stereo unspecified) + C=CC(=O)N1CCN(c2nc(OCC3CCCN3C)nc3c(F)c(-c4nc(N)cc(C)c4C(F)(F)F)c(Cl)cc23)C(C)C1
IC50 (second compound 0.00316 µM): 1.69 µM | IC50 (second compound 0.01 µM): 2.42 µM | IC50 (second compound 0.0316 µM): 1.63 µM | IC50 (second compound 0.1 µM): 1.54 µM | IC50 (second compound 0.316 µM): 2.37 µM | IC50 (second compound 1 µM): 1.34 µM | viability, T/C [1]: 93.7% | viability, T/C [2]: 97.9% | viability, T/C [3]: 78% | viability, T/C [4]: 57.4% | viability, T/C [5]: 42.8% | viability, T/C [6]: 35.3% | viability, T/C [7]: 104% | viability, T/C [8]: 83.3% | viability, T/C [9]: 79% | viability, T/C [10]: 62.4% | viability, T/C [11]: 43.8% | viability, T/C [12]: 34.2% | viability, T/C [13]: 101% | viability, T/C [14]: 83.5% | viability, T/C [15]: 70.7% | viability, T/C [16]: 53.2% | viability, T/C [17]: 45.3% | viability, T/C [18]: 30.5% | viability, T/C [19]: 109% | viability, T/C [20]: 82.7% | viability, T/C [21]: 69.2% | viability, T/C [22]: 55% | viability, T/C [23]: 45.2% | viability, T/C [24]: 29.9% | viability, T/C [25]: 106% | viability, T/C [26]: 102% | viability, T/C [27]: 79.3% | viability, T/C [28]: 65.2% | viability, T/C [29]: 46.1% | viability, T/C [30]: 27.3% | viability, T/C [31]: 108% | viability, T/C [32]: 93.9% | viability, T/C [33]: 79.1% | viability, T/C [34]: 50.5% | viability, T/C [35]: 41% | viability, T/C [36]: 28.9%

CC(C)n1nc(-c2ccc3oc(N)nc3c2)c2c(N)ncnc21 + C=CC(=O)N1CCN(c2nc(OCC3CCCN3C)nc3c(F)c(-c4nc(N)cc(C)c4C(F)(F)F)c(Cl)cc23)C(C)C1
IC50 (second compound 0.00316 µM): 0.0201 µM | IC50 (second compound 0.01 µM): 0.0272 µM | IC50 (second compound 0.0316 µM): 0.0166 µM | IC50 (second compound 0.1 µM): 0.0355 µM | IC50 (second compound 0.316 µM): 0.0215 µM | IC50 (second compound 1 µM): 0.0236 µM | viability, T/C (second compound 0.00316 µM, first compound 0.000316 µM): 97.2% | viability, T/C (second compound 0.00316 µM, first compound 0.001 µM): 92.6% | viability, T/C (second compound 0.00316 µM, first compound 0.00316 µM): 84.2% | viability, T/C (second compound 0.00316 µM, first compound 0.01 µM): 66.1% | viability, T/C [1]: 39.3% | viability, T/C [2]: 27% | viability, T/C (second compound 0.01 µM, first compound 0.000316 µM): 81.8% | viability, T/C (second compound 0.01 µM, first compound 0.001 µM): 88.8% | viability, T/C (second compound 0.01 µM, first compound 0.00316 µM): 91.8% | viability, T/C (second compound 0.01 µM, first compound 0.01 µM): 67.5% | viability, T/C [7]: 48.6% | viability, T/C [8]: 18.8% | viability, T/C (second compound 0.0316 µM, first compound 0.000316 µM): 89.9% | viability, T/C (second compound 0.0316 µM, first compound 0.001 µM): 90% | viability, T/C (second compound 0.0316 µM, first compound 0.00316 µM): 81.2% | viability, T/C (second compound 0.0316 µM, first compound 0.01 µM): 54.7% | viability, T/C [13]: 42.3% | viability, T/C [14]: 23.8% | viability, T/C (second compound 0.1 µM, first compound 0.000316 µM): 109% | viability, T/C (second compound 0.1 µM, first compound 0.001 µM): 89.5% | viability, T/C (second compound 0.1 µM, first compound 0.00316 µM): 84.7% | viability, T/C (second compound 0.1 µM, first compound 0.01 µM): 74.5% | viability, T/C [19]: 56% | viability, T/C [20]: 23.3% | viability, T/C (second compound 0.316 µM, first compound 0.000316 µM): 92% | viability, T/C (second compound 0.316 µM, first compound 0.001 µM): 78.3% | viability, T/C (second compound 0.316 µM, first compound 0.00316 µM): 85.7% | viability, T/C (second compound 0.316 µM, first compound 0.01 µM): 62.6% | viability, T/C [25]: 43.6% | viability, T/C [26]: 30.1% | viability, T/C (second compound 1 µM, first compound 0.000316 µM): 81.1% | viability, T/C (second compound 1 µM, first compound 0.001 µM): 92.6% | viability, T/C (second compound 1 µM, first compound 0.00316 µM): 82% | viability, T/C (second compound 1 µM, first compound 0.01 µM): 72% | viability, T/C [31]: 42.5% | viability, T/C [32]: 22.2%

C[C@@H](NC(=O)c1ncnc(N)c1Cl)c1ncc(C(=O)Nc2cc(C(F)(F)F)c(Cl)cn2)s1 + C=CC(=O)N1CCN(c2nc(OCC3CCCN3C)nc3c(F)c(-c4nc(N)cc(C)c4C(F)(F)F)c(Cl)cc23)C(C)C1
IC50 (second compound 0.00316 µM): > 10 µM | IC50 (second compound 0.01 µM): > 10 µM | IC50 (second compound 0.0316 µM): > 10 µM | IC50 (second compound 0.1 µM): > 10 µM | IC50 (second compound 0.316 µM): > 10 µM | IC50 (second compound 1 µM): > 10 µM | viability, T/C [1]: 106% | viability, T/C [2]: 104% | viability, T/C [3]: 101% | viability, T/C [4]: 86.2% | viability, T/C [5]: 84.7% | viability, T/C [6]: 56.9% | viability, T/C [7]: 96.1% | viability, T/C [8]: 94% | viability, T/C [9]: 96.5% | viability, T/C [10]: 75.8% | viability, T/C [11]: 81.3% | viability, T/C [12]: 60.3% | viability, T/C [13]: 111% | viability, T/C [14]: 98.4% | viability, T/C [15]: 100% | viability, T/C [16]: 81.1% | viability, T/C [17]: 75.6% | viability, T/C [18]: 59.3% | viability, T/C [19]: 89.5% | viability, T/C [20]: 92.3% | viability, T/C [21]: 101% | viability, T/C [22]: 92% | viability, T/C [23]: 78.5% | viability, T/C [24]: 63.4% | viability, T/C [25]: 108% | viability, T/C [26]: 102% | viability, T/C [27]: 101% | viability, T/C [28]: 79.3% | viability, T/C [29]: 83.2% | viability, T/C [30]: 53% | viability, T/C [31]: 100% | viability, T/C [32]: 95.7% | viability, T/C [33]: 77.3% | viability, T/C [34]: 88.5% | viability, T/C [35]: 63.7% | viability, T/C [36]: 52.1%
